Consider 39 compounds from patent US7977322B2 (Vertex Pharmaceuticals Incorporated, priority 2004, dated 2011).

The assay concerns the target T1, ΔF508-CFTR (Homo sapiens, UniProt P13569, DEL508-508).
T1 construct: expressed in transfected cells
Nature of the assay: Membrane potential optical (FRET/VIPR) assay, identification of correction compounds. The conditions noted are these: Table 3, assay not given; for Emax: read-out: % Activity / % Efficacy (relative efficacy). It counts as cell-based. In short, it runs like this:
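NIH3T3 mouse fibroblasts stably expressing ΔF508-CFTR were exposed to compound for 16 h at 37° C in serum-free medium, then loaded with DiSBAC2(3)/CC2-DMPE. After addition of 10 μM forskolin plus 20 μM genistein in Cl⁻-free gluconate bath (pH 7.4), depolarization from Cl⁻ efflux was read by FRET (VIPR II).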

Each structure is given as a SMILES string.

T1 sequence (P13569 with tags, fused parts or gaps DEL508-508): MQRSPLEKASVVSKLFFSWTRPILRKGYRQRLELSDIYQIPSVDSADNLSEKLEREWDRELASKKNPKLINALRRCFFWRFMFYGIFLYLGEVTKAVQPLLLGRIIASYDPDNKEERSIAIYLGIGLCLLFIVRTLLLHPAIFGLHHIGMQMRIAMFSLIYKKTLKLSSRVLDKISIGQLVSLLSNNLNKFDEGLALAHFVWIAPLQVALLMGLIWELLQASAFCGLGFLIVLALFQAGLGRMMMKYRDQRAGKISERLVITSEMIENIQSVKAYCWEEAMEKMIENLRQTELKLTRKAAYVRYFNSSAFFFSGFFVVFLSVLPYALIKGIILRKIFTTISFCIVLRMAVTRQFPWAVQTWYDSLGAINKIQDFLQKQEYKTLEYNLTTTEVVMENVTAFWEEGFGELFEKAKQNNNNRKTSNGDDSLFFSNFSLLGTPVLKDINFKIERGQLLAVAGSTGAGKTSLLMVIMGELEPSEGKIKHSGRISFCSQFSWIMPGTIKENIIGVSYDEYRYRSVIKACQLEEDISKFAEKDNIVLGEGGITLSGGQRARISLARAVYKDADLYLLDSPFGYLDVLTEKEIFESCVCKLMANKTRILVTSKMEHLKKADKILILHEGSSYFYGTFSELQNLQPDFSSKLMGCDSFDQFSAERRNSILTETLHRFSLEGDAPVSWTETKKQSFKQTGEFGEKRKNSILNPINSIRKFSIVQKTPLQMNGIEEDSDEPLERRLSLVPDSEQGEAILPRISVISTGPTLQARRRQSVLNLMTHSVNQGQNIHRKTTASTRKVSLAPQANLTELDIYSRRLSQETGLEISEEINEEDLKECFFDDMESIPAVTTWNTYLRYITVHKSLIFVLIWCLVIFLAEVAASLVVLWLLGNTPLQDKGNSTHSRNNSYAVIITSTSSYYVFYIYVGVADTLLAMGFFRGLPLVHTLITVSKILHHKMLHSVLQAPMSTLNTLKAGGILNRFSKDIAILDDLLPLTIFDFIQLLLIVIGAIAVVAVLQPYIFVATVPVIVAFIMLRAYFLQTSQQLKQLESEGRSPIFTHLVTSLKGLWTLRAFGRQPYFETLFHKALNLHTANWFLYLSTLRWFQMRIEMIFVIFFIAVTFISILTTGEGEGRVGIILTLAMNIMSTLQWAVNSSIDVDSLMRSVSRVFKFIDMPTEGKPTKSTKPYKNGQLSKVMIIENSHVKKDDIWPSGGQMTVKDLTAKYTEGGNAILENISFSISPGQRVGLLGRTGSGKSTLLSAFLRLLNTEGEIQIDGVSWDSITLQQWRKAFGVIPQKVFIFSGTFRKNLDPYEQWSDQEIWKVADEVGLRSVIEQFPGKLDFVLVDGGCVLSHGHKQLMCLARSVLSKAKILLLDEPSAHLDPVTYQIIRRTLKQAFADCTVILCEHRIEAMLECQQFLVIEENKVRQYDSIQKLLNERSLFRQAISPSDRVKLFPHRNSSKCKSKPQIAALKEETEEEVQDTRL

For the compound `COc1cccc(C(c2cnc(NC(=O)C3(c4ccc5c(c4)OCO5)CC3)s2)N2CCOCC2)c1` (stereo not drawn) [Example 374], the half-maximal effective concentration (EC50) (usually the concentration at which the effect is half-maximal) was less than 10 µM and the Emax is more than 100%.

In the case of `COCC1CCCN1C(c1ccc(S(C)(=O)=O)cc1)c1cnc(NC(=O)C2(c3ccc4c(c3)OCO4)CC2)s1` (stereo not drawn) [Example 375], the concentration for a half-maximal effect (EC50) lay in the range of 10 to 25 µM and the Emax lay within 25 to 100%.

In the case of `CCN(CC)C(c1ccc(S(C)(=O)=O)cc1)c1cnc(NC(=O)C2(c3ccc4c(c3)OCO4)CC2)s1` (stereo not drawn) [Example 376], the EC50 lay in the range of 10 to 25 µM and the Emax is 25 to 100%.

Turning to `CS(=O)(=O)c1ccc(C(c2cnc(NC(=O)C3(c4ccc5c(c4)OCO5)CC3)s2)N2CCC[C@H]2C(N)=O)cc1` (stereo partly drawn) [Example 377], the EC50 fell in the range of 10 to 25 µM and the Emax lay within 25 to 100%.

With `CS(=O)(=O)c1ccc(C(c2cnc(NC(=O)C3(c4ccc5c(c4)OCO5)CC3)s2)N2CC[C@@H](O)C2)cc1` (stereo partly drawn) [Example 378], the EC50 was 10 to 25 µM and the Emax lay within 25 to 100%.

Regarding `COC[C@@H]1CCCN1C(c1ccc(S(C)(=O)=O)cc1)c1cnc(NC(=O)C2(c3ccc4c(c3)OCO4)CC2)s1` (stereo partly drawn) [Example 379], the EC50 was in the range of 10 to 25 µM and the Emax is 25 to 100%.

As for `CS(=O)(=O)c1ccc(C(c2cnc(NC(=O)C3(c4ccc5c(c4)OCO5)CC3)s2)N2CCC(O)CC2)cc1` (stereo not drawn) [Example 380], the EC50 fell in the range of 10 to 25 µM and the Emax was 25 to 100%.

For the compound `CN(C)C(c1ccc(S(C)(=O)=O)cc1)c1cnc(NC(=O)C2(c3ccc4c(c3)OCO4)CC2)s1` (stereo not drawn) [Example 381], the EC50 is 10 to 25 µM and the Emax fell in the range of 25 to 100%.

Regarding `CS(=O)(=O)c1ccc(C(c2cnc(NC(=O)C3(c4ccc5c(c4)OCO5)CC3)s2)N2CCOCC2)cc1` (stereo not drawn) [Example 382], the EC50 is 10 to 25 µM and the Emax was more than 100%.

`CC(C)(C)C(c1cnc(NC(=O)C2(c3ccc4c(c3)OCO4)CC2)s1)N1CCCCC1` (stereo not drawn) [Example 383]: the EC50 was 10 to 25 µM and the Emax is more than 100%.

`CC(C)(C)C(c1cnc(NC(=O)C2(c3ccc4c(c3)OCO4)CC2)s1)N1CCC[C@H]1C(N)=O` (stereo partly drawn) [Example 384]: the EC50 was in the range of 10 to 25 µM and the Emax was more than 100%.

Turning to `CS(=O)(=O)c1ccc(C(c2cnc(NC(=O)C3(c4ccc5c(c4)OCO5)CC3)s2)N2CCCC2)cc1` (stereo not drawn) [Example 385], the EC50 was less than 10 µM and the Emax was more than 100%.

As to `C/C=C/c1cnc(NC(=O)C2(c3ccc4c(c3)OCO4)CC2)s1` [Example 386], the EC50 lay in the range of 10 to 25 µM and the Emax is more than 100%.

As to `COC[C@@H]1CCCN1C(c1cnc(NC(=O)C2(c3ccc4c(c3)OCO4)CC2)s1)C(C)(C)C` (stereo partly drawn) [Example 387], the concentration for a half-maximal effect (EC50) lay within 10 to 25 µM and the Emax is more than 100%.

Take `CS(=O)(=O)c1ccc(C(c2cnc(NC(=O)C3(c4ccc5c(c4)OCO5)CC3)s2)N2CCCCC2)cc1` (stereo not drawn) [Example 388]: the EC50 was less than 10 µM and the Emax is more than 100%.

For `COCC1CCCN1C(c1cnc(NC(=O)C2(c3ccc4c(c3)OCO4)CC2)s1)C(C)(C)C` (stereo not drawn) [Example 389], the half-maximal effective concentration (EC50) was in the range of 10 to 25 µM and the Emax is more than 100%.

As to `CC(C)(C)C(c1cnc(NC(=O)C2(c3ccc4c(c3)OCO4)CC2)s1)N1CC[C@@H](O)C1` (stereo partly drawn) [Example 390], the EC50 was 10 to 25 µM and the Emax was more than 100%.

Regarding `CC(C)(C)C(c1cnc(NC(=O)C2(c3ccc4c(c3)OCO4)CC2)s1)N1CCCC1` (stereo not drawn) [Example 391], the EC50 was in the range of 10 to 25 µM and the Emax is more than 100%.

Consider `CC(C)(C)C(c1cnc(NC(=O)C2(c3ccc4c(c3)OCO4)CC2)s1)N1CCC(O)CC1` (stereo not drawn) [Example 392], for which the EC50 was in the range of 10 to 25 µM and the Emax is more than 100%.

For `CCN(CC)C(c1cnc(NC(=O)C2(c3ccc4c(c3)OCO4)CC2)s1)C(C)(C)C` (stereo not drawn) [Example 393], the EC50 lay in the range of 10 to 25 µM and the Emax was more than 100%.

Regarding `CC(C)(C)C(c1cnc(NC(=O)C2(c3ccc4c(c3)OCO4)CC2)s1)N1CCOCC1` (stereo not drawn) [Example 394], the 50% effective concentration (EC50) was less than 10 µM and the Emax is more than 100%.

Turning to `CN(C)C(c1cnc(NC(=O)C2(c3ccc4c(c3)OCO4)CC2)s1)C(C)(C)C` (stereo not drawn) [Example 395], the EC50 lay in the range of 10 to 25 µM and the Emax was more than 100%.

Regarding `CCC(c1cnc(NC(=O)C2(c3ccc4c(c3)OCO4)CC2)s1)N1CCC(O)CC1` (stereo not drawn) [Example 396], the concentration for a half-maximal effect (EC50) lay in the range of 10 to 25 µM and the Emax lay in the range of 25 to 100%.

Consider `CCC(c1cnc(NC(=O)C2(c3ccc4c(c3)OCO4)CC2)s1)N1CCCC1` (stereo not drawn) [Example 397], for which the 50% effective concentration (EC50) lay within 10 to 25 µM and the Emax is 25 to 100%.

On to `CCC(c1cnc(NC(=O)C2(c3ccc4c(c3)OCO4)CC2)s1)N1CCOCC1` (stereo not drawn) [Example 398], for which the EC50 fell in the range of 10 to 25 µM and the Emax lay within 25 to 100%.

Take `COc1ccccc1C(c1cnc(NC(=O)C2(c3ccc4c(c3)OCO4)CC2)s1)N1CCOCC1` (stereo not drawn) [Example 399]: the EC50 is less than 10 µM and the Emax was more than 100%.

`COc1ccc(C(c2cnc(NC(=O)C3(c4ccc5c(c4)OCO5)CC3)s2)N2CCOCC2)cc1` (stereo not drawn) [Example 400]: the EC50 was less than 10 µM and the Emax is more than 100%.

`CCC(c1cnc(NC(=O)C2(c3ccc4c(c3)OCO4)CC2)s1)N1CCC[C@@H]1COC` (stereo partly drawn) [Example 401]: the EC50 is 10 to 25 µM and the Emax is more than 100%.

As to `CCC(c1cnc(NC(=O)C2(c3ccc4c(c3)OCO4)CC2)s1)N1CC[C@@H](O)C1` (stereo partly drawn) [Example 402], the EC50 lay in the range of 10 to 25 µM and the Emax was more than 100%.

Take `CCC(c1cnc(NC(=O)C2(c3ccc4c(c3)OCO4)CC2)s1)N1CCCCC1` (stereo not drawn) [Example 403]: the EC50 was 10 to 25 µM and the Emax was more than 100%.

With `CCC(c1cnc(NC(=O)C2(c3ccc4c(c3)OCO4)CC2)s1)N1CCC[C@H]1COC` (stereo partly drawn) [Example 404], the EC50 is 10 to 25 µM and the Emax is more than 100%.

With `CN1CCCC1CCNC(c1cnc(NC(=O)C2(c3ccc4c(c3)OCO4)CC2)s1)c1ccccc1Cl` (stereo not drawn) [Example 405], the EC50 is less than 10 µM and the Emax lay within 25 to 100%.

In the case of `O=C(Nc1ncc(C(NCCN2CCCC2)c2ccccc2Cl)s1)C1(c2ccc3c(c2)OCO3)CC1` (stereo not drawn) [Example 406], the concentration giving a half-maximal response (EC50) is less than 10 µM and the Emax lay in the range of 25 to 100%.

As to `O=C1NOC[C@@H]1NC(c1cnc(NC(=O)C2(c3ccc4c(c3)OCO4)CC2)s1)c1ccccc1Cl` (stereo partly drawn) [Example 407], the EC50 lay in the range of 10 to 25 µM and the Emax lay in the range of 25 to 100%.

Regarding `O=C(Nc1ncc(C(NCCCn2ccnc2)c2ccccc2Cl)s1)C1(c2ccc3c(c2)OCO3)CC1` (stereo not drawn) [Example 408], the concentration for a half-maximal effect (EC50) was less than 10 µM and the Emax fell in the range of 25 to 100%.

Consider `O=C(Nc1ncc(C(NCC2CCCCC2)c2ccccc2Cl)s1)C1(c2ccc3c(c2)OCO3)CC1` (stereo not drawn) [Example 409], for which the EC50 is less than 10 µM and the Emax was more than 100%.

Consider `CCN(CCO)C(c1cnc(NC(=O)C2(c3ccc4c(c3)OCO4)CC2)s1)c1ccccc1Cl` (stereo not drawn) [Example 410], for which the EC50 is less than 10 µM and the Emax is more than 100%.

For the compound `O=C(Nc1ncc(C(NC2CCCCC2)c2ccccc2Cl)s1)C1(c2ccc3c(c2)OCO3)CC1` (stereo not drawn) [Example 411], the half-maximal effective concentration (EC50) is less than 10 µM and the Emax was more than 100%.

In the case of `O=C(Nc1ncc(C(NCc2ccco2)c2ccccc2Cl)s1)C1(c2ccc3c(c2)OCO3)CC1` (stereo not drawn) [Example 412], the EC50 was less than 10 µM and the Emax was more than 100%.
